Values joined by “and” are separate entries in the source; they are usually repeats but may differ in a detail not shown here. Identical values can stand only once. Like-named read-outs stand apart in the source and are kept apart here. Where a SMILES comes first, the peptide text is derived from it.
How the values were obtained:
[1] = molecular target: T1, rat apelin receptor-EGFP (Rattus norvegicus, UniProt Q9JHG3); assay: Inhibition of forskolin-induced cAMP production (HTRF); type: cell-based
T1 construct: expressed in transfected cells
T1 sequence (Q9JHG3 1-377): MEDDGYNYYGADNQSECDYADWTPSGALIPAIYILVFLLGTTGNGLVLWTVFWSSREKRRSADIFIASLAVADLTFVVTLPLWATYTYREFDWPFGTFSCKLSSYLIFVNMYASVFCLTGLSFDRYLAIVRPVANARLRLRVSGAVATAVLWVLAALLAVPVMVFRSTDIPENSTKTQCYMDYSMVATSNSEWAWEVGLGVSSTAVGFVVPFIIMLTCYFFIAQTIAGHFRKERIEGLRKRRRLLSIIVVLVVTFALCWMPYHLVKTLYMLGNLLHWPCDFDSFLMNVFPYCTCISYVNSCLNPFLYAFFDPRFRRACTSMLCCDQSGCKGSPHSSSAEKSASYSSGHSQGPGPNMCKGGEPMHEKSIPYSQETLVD
Method: cAMP was quantified using the cAMP dynamic 2 assay kit (Cisbio Bioassays, Codolet, France) based on homogeneous time-resolved fluorescence (HTRF) technology. The stimulation was done in the stimulation buffer (HBSS, 5 mM Hepes, 0.1% BSA stabilizer, 1 mM IBMX, pH 7.4). Briefly, 2,000/well CHO cells stably expressing the rat apelin receptor-EGFP were added into 384-well plate and stimulated with 10^−6 M forskolin (FSK) and increasing concentrations (10^−14 to 10^−4 M) of apelins or its analogs for 30 min at room temperature. Cells were then lyzed, and cAMP levels were determined following manufacturer instructions.

[2] = molecular target: T1, rat apelin receptor-EGFP; assay: ERK1/2 phosphorylation (Alphascreen); type: cell-based
From the text: ERK1/2 phosphorylation was then monitored by Alphascreen technology.

[3] = molecular target: T1, rat apelin receptor-EGFP; assay: [125I]pE13F radioligand binding on CHO membrane preparations
Method: Crude membrane preparation from CHO stably expressing the wild-type rat apelin receptor-EGFP, were prepared as previously described (39). […] The reaction was stopped by adding ice-cold binding buffer and filtered through glass microfiber filters (Whatman GF/C filters). Radioactivity was counted in Wizard 1470 Wallac gamma counter (Perkin Elmer, Turku, Finland).

[4] = tested on: rat aortic rings precontracted by noradrenaline (NA); assay: Isometric tension of aortic rings precontracted by noradrenaline; details: precontraction 3×10^−6 M NA
Method: The experiments were performed in rat aortic rings as previously described (39). […] The aortas were cleaned of excess connective tissue and fat and cut into rings of approximately 3-4 mm in length. Special care was taken to avoid damaging the luminal surface of the endothelium. […] One end of the aortic ring was connected to a tissue holder and the other to an isometric force transducer (EMKA Technologies, Paris, France). […] During equilibration period, the rings were washed every 30 min. Then, a first relaxation to acetylcholine (Ach, 10^−4 mol/L) was implemented to check the integrity or the absence of the endothelium in rings precontracted with NA (3×10^−8 mol/L). After rinsing with PSS to baseline tension, rings were equilibrated for 90 min. […] Each concentration of the drug was added at the maximal effect of the precedent concentration. The concentration-response curves were continuously recorded on a PC by means of IOX v 2.4 (EMKA Technologies, Paris) for further analysis (Datanalyst v2.1, EMKA Technologies, Paris).

[5] = in vitro; details: mouse, plasma
Method: For each compound, the stock solution (100 μM in water) was diluted in plasma to a final incubation concentration of 5 μM. The incubation at 37° C. was stopped respectively at to and 4 h by adding one volume of ice cold acetonitrile containing 0.1% trifluoroacetic acid. The sample was vortexed for 1 min and then centrifuged at 4° C. before LC-MS injection of the supernatant. Analyses were performed on a Kinetex RP-C18 column (2.6 μm, 100 Å, 50×4.6 mm) using a linear gradient (solvent B in solvent A, solvent A: water/0.05% TFA; solvent B: acetonitrile; flow rate of 2 mL·min^−1: detection at 358 nm). The percentage of remaining test compound relative to t0 was measured by monitoring the peak area of the chromatogram.

[6] = molecular target: T1, rat apelin receptor-EGFP; assay: Apelin receptor-EGFP internalization, confocal microscopy; type: cell-based
Method: The internalization assay was performed as described previously with CHO cells stably expressing the rat apelin receptor-EGFP (43). […] Cells were then mounted in Aquapolymount (Polysciences, Warrington, Pa., USA) for confocal microscopic analysis (Sec (42) for details).

[7] = tested on: anaesthesized normotensive Wistar rats; assay: Arterial blood pressure after i.v. injection; type: in vivo, rat
Method: The resulting solution was administered to the rats via a catheter inserted into the right femoral vein, and was immediately followed by 0.2 ml Krebs buffer alone to flush the venous catheter. An additional catheter was inserted into the right femoral artery, as previously described (47), for the monitoring of mean arterial blood pressure (MBP) as previously described (48). The arterial catheter was connected to a COBE CDX III pressure transducer (Phymep, Paris, France) linked to the Maclab system (Phymep, Paris, France). HR measurement was triggered by the blood pressure signal. BP was continuously recorded throughout the experiment. […] Mean AUC for each group were then calculated. Unpaired Student's t test was used to determine whether BP observed in response to substances administered […].) has statistically significant difference.

[8] = tested on: AT1 receptor; assay: Selectivity towards the AT1 receptor; type: binding
[9] = tested on: isolated perfused rat heart; assay: Isolated perfused rat heart, cardiac contractility
Method: Animals were anesthetized with pentobarbital sodium (50 mg/kg intraperitoneally). Heparin (200 IU/kg) was administrated into the femoral vein. Hearts were excised quickly and arrested in ice-cold Krebs-Henseleit solution containing (mM): […] […] Temperature was continuously monitored by a thermoprobe inserted into the right atrium. Hearts beat spontaneously under the sinus rhythm. […] The maximal rate of rise of left ventricular pressure (dP/dtmax) and heart rate were derived from left ventricular pressure. After 20-minutes equilibration period, the hearts were treated by drugs added to the perfusate with an infusion pump (Harvard Apparatus Pump 11) at rate of 100 μL/min for 30 minutes.

[10] = tested on: rat glomerular arterioles precontracted by Angiotensin II (AngII); assay: Diameter of glomerular arterioles precontracted by angiotensin II
Method: The left kidney of male rats was prepared for microdissection of arterioles as previously described (44). Glomerular arterioles were isolated under stereomicroscopic observation. The afferent and muscular efferent arterioles were isolated with the glomerulus and identify according their morphology and localization in the inner renal cortex as previously described by Helou et al. […] For these experiments afferent and muscular efferent arterioles were microdissected attached to the gomeruli. […] Arteriolar diameters were measured with Adobe Photoshop CS. Diameters were measured on a distance equal to about 100 μm upstream of the glomerulus and triplicate were performed for each arteriole. Calibration was made using a stage micrometer. The average diameter for each experimental condition was used for statistical analysis.

[11] = tested on: water-deprived or euhydrated mice; assay: Plasma AVP after i.c.v. injection (RIA); type: in vivo, mouse
Method: Animals were killed 1 min after the injection, and trunk blood (0.5-1 ml) was collected in chilled tubes containing 50 μl of 0.3 M EDTA pH 7.4. […] RIA kit (Peninsula Laboratories International Inc, San Carlo, USA).

[12] = 10^−6 M forskolin, read-out: IC50 inhibition of forskolin-induced cAMP production
[13] = Table 2, read-out: cAMP production IC50
[14] = Table 7, read-out: ERK1/2 phosphorylation EC50

Structure (SMILES): CCCC[C@H](NC(=O)[C@@H]1CCCN1C(=O)[C@@H](C)NC(=O)[C@H](CCCCN)NC(=O)C(C)(C)NC(=O)[C@H](CO)NC(=O)[C@@H](CC(C)C)NC(=O)[C@H](CCCNC(=N)N)NC(=O)[C@@H]1CCCN1C(=O)[C@H](CCCNC(=N)N)NC(C)=O)C(=O)N1CCC[C@H]1C(=O)N[C@@H](Cc1ccc(Br)cc1)C(=O)O [P26, N-Acetyl-Arg-Pro-Arg-DLeu-Ser-Aib-Lys-DAla-Pro-Nle-Pro-(4-Br)Phe-OH] (HELM PEPTIDE1{[ac].R.P.R.[dL].S.[Aib].K.[dA].P.[Nle].P.[O=C(O)[C@H](Cc1ccc(Br)cc1)N[*:1]]}$$$$V2.0)
- IC50 [1, 12]: 4.4 ± 0.9 nM
- IC50 [1, 13]: 2.22 ± 1 nM
- ERK1/2 EC50 times higher than K17F [2]: 18 times
- EC50 ([2]; 10 min, read-out: EC50 ERK1/2 phosphorylation): 71.3 ± 19.1 nM
- EC50 [2, 14]: 72.1 ± 19.6 nM
- Ki ([3]; [125I]pE13F binding I (nM), Table 2): 2.11 ± 0.4 nM
- maximal relaxant effect [4]: 93±3%
- potency (pD2) of relaxation [4]: 6.27±0.42
- half-life at 5 μM [5]: 86 min
- EC50 ([6]; 20 min, read-out: EC50 apelin receptor internalization): 2.11 ± 1.14 nM

Structure (SMILES): CCCC[C@H](NC(=O)[C@@H]1CCCN1C(=O)[C@@H](C)NC(=O)[C@H](CCCCN)NC(=O)C(C)(C)NC(=O)[C@H](CO)NC(=O)[C@@H](CC(C)C)NC(=O)[C@H](CCCNC(=N)N)NC(=O)[C@@H]1CCCN1C(=O)[C@H](CCCNC(=N)N)NC(=O)[C@@H](CCC(N)=O)NC(=O)[C@H](CCCNC(=N)N)NC(=O)[C@@H](CCCNC(=N)N)NC(=O)[C@H](Cc1ccccc1)NC(=O)[C@H](CCCCN)NC(C)=O)C(=O)N1CCC[C@H]1C(=O)N[C@@H](Cc1ccc(Br)cc1)C(=O)O [P92, N-Acetyl-Lys-Phe-DArg-Arg-DGln-Arg-Pro-Arg-DLeu-Ser-Aib-Lys-DAla-Pro-Nle-Pro-(4Br)Phe-OH] (HELM PEPTIDE1{[ac].K.F.[dR].R.[dQ].R.P.R.[dL].S.[Aib].K.[dA].P.[Nle].P.[O=C(O)[C@H](Cc1ccc(Br)cc1)N[*:1]]}$$$$V2.0)
- agonist behaviour on inhibition of cAMP production induced by forskolin [1]: full agonist
- IC50 [1, 12]: 0.2 ± 0.06 nM
- IC50 ([1]; Table 1, read-out: cAMP production IC50): 0.62 ± 0.77 nM
- IC50 [1, 13]: 0.56 ± 0.32 nM
- duration of the hypotensive effect, fold higher than K17F ([7]; 15 nmol i.v.): 3 fold
- maximal hypotensive response, fold higher than K17F ([7]; 15 nmol i.v.): 3 fold
- return to baseline after injection ([7]; 15 nmol/rat i.v.): 10.8 min
- AUC of BP response ([7]; 100 nmol i.v., 15 minutes following injection): −34303±4003 mmHg·s
- decrease in MABP ([7]; 100 nmol/rat i.v.): 55.4 mmHg
- plateau value after maximal decrease ([7]; 100 nmol/rat i.v.): −20 mmHg
- time of return to plateau value ([7]; 100 nmol/rat i.v.): around 35 min
- plateau value after maximal decrease ([7]; 10 or 15 nmol i.v.): −25 mmHg
- time of return to plateau value ([7]; 10 or 15 nmol i.v.): around 33 min
- Maximal decrease in BP (mmHg) ([7]; Table 5, 15 nmol i.v.): −20.8 mmHg
- Time For maximal BP decrease ([7]; Table 5, 15 nmol i.v.): 1.6 min
- Time to return to a plateau value ([7]; Table 5, 15 nmol i.v.): 10.8 min
- plateau value reached (in brackets) ([7]; Table 5, 15 nmol i.v.): −12 mmHg
- ED50 decrease of MABP ([7]; i.v. 5-100 nmol/rat): 29.5 nmol
- EC50 [2, 14]: 3.42 ± 2.41 nM
- IC50 ([3]; Table 1): 0.21 ± 0.13 nM
- Ki ([3]; competition with [125I]pE13F, CHO membranes, read-out: Ki for the apelin receptor (affinity)): 0.21 nM and 0.2 nM and 0.09 nM
- selectivity towards the AT1 receptor with respect to the apelin receptor (factor) [8]: 100
- chronotropic effect [9]: No chronotropic effect
- effect on cardiac contractility (developed pressure) ([9]; K17F 0.01 to 300 nM, P92 200 and 400 nM): increase cardiac contractility with an amplitude similar to K17F
- maximal relaxant effect [4]: 100±1%
- potency (pD2) of relaxation [4]: 7.68±0.57
- half-life at 5 μM [5]: 24 min
- agonist behaviour towards apelin receptor internalization [6]: full agonist
- EC50 ([6]; Table 2, read-out: Internalization EC50): 0.38 ± 0.11 nM
- arteriolar diameter after addition to Ang II-preconstricted arterioles ([10]; 500 nM, 1 nM Ang II, from 87.6±1.9% with Ang II, percentage of controls): 98.1±2.5%
- vasorelaxant effect in the presence of L-NAME ([10]; L-NAME, NO synthase inhibitor): blocked
- effect on plasma AVP levels in euhydrated mice ([11]; euhydrated mice, supramaximal dose 1 μg i.c.v.): no effect on plasma AVP levels
- maximal decrease in AVP release ([11]; water-deprived mice, 0.1 μg i.c.v.): −85%

From patent US20210206817A1, “Metabolically Stable Apelin Analogs in the Treatment of Disease Mediated by the Apelin Receptor” (priority 2014, published 2021)
